These compounds were tested on hypoxia-induced VEGF production in HeLa cells (assay: cells). Conditions: Homo sapiens, HeLa.
Type: cell-based, human

| Compound | EC50 [nM] |
| --- | --- |
| CC#CCOC(=O)N1CCc2c([nH]c3ccc(Cl)cc23)[C@@H]1c1ccc(OC2CCN(S(=O)(=O)CC[Si](C)(C)C)CC2)cc1 [Compound 1606] | < 8 |
| C[Si](C)(C)CCS(=O)(=O)N1CCC(Oc2ccc([C@H]3c4[nH]c5ccc(Cl)cc5c4CCN3C(=O)Oc3ccc(F)cc3)cc2)CC1 [Compound 1607] | < 8 |
| C=CCOc1ccc([C@H]2c3[nH]c4ccc(Cl)cc4c3CCN2P(=O)(OCC)OCC)cc1 [Compound 1608] | > 1000 |
| C=CCOc1ccc([C@H]2c3[nH]c4ccc(Cl)cc4c3CCN2C(=O)OCC2CCCC2)cc1 [Compound 1609] | < 8 |
| CCOC(=O)N1CCc2c([nH]c3ccc(Cl)cc23)[C@@H]1c1ccc(OCCCNCC2CCCO2)cc1 (some centres unmarked) [Compound 1610] | 40 to 200 |
| CCOC(=O)N1CCc2c([nH]c3ccc(Cl)cc23)[C@@H]1c1ccc(OCCC(O)CNC(=O)CC)cc1 (some centres unmarked) [Compound 1615] | 8 to 40 |
| CCOC(=O)N1CCc2c([nH]c3ccc(Cl)cc23)[C@@H]1c1ccc(OCCC(O)CNC(=O)C(C)C)cc1 (some centres unmarked) [Compound 1616] | 8 to 40 |
| CCOC(=O)N1CCc2c([nH]c3ccc(Cl)cc23)[C@@H]1c1ccc(OCCC(O)CNC(=O)c2cccnc2)cc1 (some centres unmarked) [Compound 1617] | 8 to 40 |
| CCOC(=O)N1CCc2c([nH]c3ccc(Cl)cc23)[C@@H]1c1ccc(OCCC(O)CNC(=O)c2ccccn2)cc1 (some centres unmarked) [Compound 1618] | < 8 |
| CCOC(=O)N1CCc2c([nH]c3ccc(Cl)cc23)[C@@H]1c1ccc(OCCC(O)CNC(=O)OC)cc1 (some centres unmarked) [Compound 1619] | < 8 |
| CCCOC(=O)NCC(O)CCOc1ccc([C@H]2c3[nH]c4ccc(Cl)cc4c3CCN2C(=O)OCC)cc1 (some centres unmarked) [Compound 1620] | < 8 |
| CCOC(=O)N1CCc2c([nH]c3ccc(Cl)cc23)[C@@H]1c1ccc(OCCC(O)CNC(=O)OCCOC)cc1 (some centres unmarked) [Compound 1621] | < 8 |
| CCOC(=O)N1CCc2c([nH]c3ccc(Cl)cc23)[C@@H]1c1ccc(OCCC(O)CNS(C)(=O)=O)cc1 (some centres unmarked) [Compound 1622] | < 8 |
| CCOC(=O)N1CCc2c([nH]c3ccc(Cl)cc23)[C@@H]1c1ccc(OCCC(O)CNS(=O)(=O)CC)cc1 (some centres unmarked) [Compound 1623] | < 8 |
| CCOC(=O)N1CCc2c([nH]c3ccc(Cl)cc23)[C@@H]1c1ccc(OCCC(O)CNS(=O)(=O)C2CC2)cc1 (some centres unmarked) [Compound 1624] | < 8 |
| O=C(OCC1CCCC1)N1CCc2c([nH]c3ccc(Cl)cc23)[C@@H]1c1ccc(OCCCO)cc1 [Compound 1630] | < 8 |
| O=C(OCC1CCCC1)N1CCc2c([nH]c3ccc(Cl)cc23)[C@@H]1c1ccc(O)cc1 [Compound 1631] | 40 to 200 |
| OCCCOc1ccc([C@H]2c3[nH]c4ccc(Cl)cc4c3CCN2c2nc(C(F)(F)F)cs2)cc1 [Compound 1632] | < 8 |
| OC[C@@H](O)COc1ccc([C@H]2c3[nH]c4ccc(Cl)cc4c3CCN2c2nc(C(F)(F)F)cs2)cc1 [Compound 1633] | < 8 |
| OC[C@H](O)COc1ccc([C@H]2c3[nH]c4ccc(Cl)cc4c3CCN2c2nc(C(F)(F)F)cs2)cc1 [Compound 1634] | < 8 |
| CS(=O)(=O)CCCOc1ccc([C@H]2c3[nH]c4ccc(Cl)cc4c3CCN2C(=O)Oc2ccc(Cl)cc2)cc1 [Compound 1648] | < 8 |
| CCOC(=O)NC[C@@H](O)COc1ccc([C@H]2c3[nH]c4ccc(Cl)cc4c3CCN2C(=O)OCC)cc1 [Compound 1650] | < 8 |
| CCOC(=O)NC[C@H](O)COc1ccc([C@H]2c3[nH]c4ccc(Cl)cc4c3CCN2C(=O)OCC)cc1 [Compound 1651] | < 8 |

| Compound | EC50 [nM] |
| --- | --- |
| C[Si](C)(C)CCS(=O)(=O)N1CCC(Oc2ccc([C@H]3c4[nH]c5ccc(Cl)cc5c4CCN3C(=O)Oc3ccc(Cl)cc3)cc2)CC1 [Compound 1652] | < 8 |
| CCOC(=O)N1CCc2c([nH]c3ccc(Cl)cc23)[C@@H]1c1ccc(Oc2nc(C)cnc2C)cc1 [Compound 1653] | < 8 |
| CCOC(=O)N1CCc2c([nH]c3ccc(Cl)cc23)[C@@H]1c1ccc(Oc2nccnc2C)cc1 [Compound 1654] | < 8 |
| CCOC(=O)N1CCc2c([nH]c3ccc(Cl)cc23)[C@@H]1c1ccc(Oc2cnc(N)cn2)cc1 [Compound 1655] | 40 to 200 |
| CCOC(=O)N1CCc2c([nH]c3ccc(Cl)cc23)[C@@H]1c1ccc(Oc2ncc(CN3CCOCC3)s2)cc1 [Compound 1656] | < 8 |
| CCOC(=O)N1CCc2c([nH]c3ccc(Cl)cc23)[C@@H]1c1ccc(Oc2ncc(CN3CCN(C)CC3)s2)cc1 [Compound 1657] | < 8 |
| O=C(Oc1ccc(Cl)cc1)N1CCc2c([nH]c3ccc(Cl)cc23)[C@@H]1c1ccc(Oc2ncc(CN3CCOCC3)s2)cc1 [Compound 1660] | < 8 |
| CN1CCN(Cc2cnc(Oc3ccc([C@H]4c5[nH]c6ccc(Cl)cc6c5CCN4C(=O)Oc4ccc(Cl)cc4)cc3)s2)CC1 [Compound 1661] | < 8 |
| COc1ccc([C@H]2c3[nH]c4ccc(Cl)cc4c3CCN2C(=O)OCC2CCCC2)cc1 [Compound 1662] | 8 to 40 |
| CCOC(=O)NC[C@H](O)COc1ccc([C@H]2c3[nH]c4ccc(Cl)cc4c3CCN2C(=O)Oc2ccc(F)cc2)cc1 [Compound 1663] | < 8 |
| CCOC(=O)NC[C@@H](O)COc1ccc([C@H]2c3[nH]c4ccc(Cl)cc4c3CCN2C(=O)Oc2ccc(F)cc2)cc1 [Compound 1664] | < 8 |
| CCOC(=O)NCC(O)CCOc1ccc([C@H]2c3[nH]c4ccc(Cl)cc4c3CCN2C(=O)OCC)cc1 (some centres unmarked) [Compound 1665] | 8 to 40 |
| CC1(C)C(=O)NC(=O)N1CCCOc1ccc(C2c3[nH]c4ccc(Cl)cc4c3CCN2C(=O)Oc2ccc(Cl)cc2)cc1 (centres unmarked) [Compound 1671] | < 8 |
| O=C1CN(CCCOc2ccc(C3c4[nH]c5ccc(Cl)cc5c4CCN3C(=O)Oc3ccc(Cl)cc3)cc2)C(=O)N1 (centres unmarked) [Compound 1672] | < 8 |
| CN1C(=O)CN(CCCOc2ccc(C3c4[nH]c5ccc(Cl)cc5c4CCN3C(=O)Oc3ccc(Cl)cc3)cc2)C1=O (centres unmarked) [Compound 1673] | < 8 |
| CC#CCOC(=O)N1CCc2c([nH]c3ccc(Cl)cc23)[C@@H]1c1ccc(OC2CCN(c3ncccn3)CC2)cc1 [Compound 1678] | < 8 |
| CC#CCOC(=O)N1CCc2c([nH]c3ccc(Cl)cc23)[C@@H]1c1ccc(OC2CCN(CCN3CCOCC3)CC2)cc1 [Compound 1679] | 8 to 40 |
| CC#CCOC(=O)N1CCc2c([nH]c3ccc(Cl)cc23)[C@@H]1c1ccc(OC2CCN(C(=O)OCCN3CCOCC3)CC2)cc1 [Compound 1680] | < 8 |
| O=C(Oc1ccc(Cl)cc1)N1CCc2c([nH]c3ccc(Cl)cc23)[C@@H]1c1ccc(OC2CCN(CCN3CCOCC3)CC2)cc1 [Compound 1682] | < 8 |
| CC#CCOC(=O)N1CCc2c([nH]c3ccc(Cl)cc23)[C@@H]1c1ccc(OC2CCNCC2)cc1 [Compound 1683] | 8 to 40 |
| CC#CCOC(=O)N1CCc2c([nH]c3ccc(Cl)cc23)[C@@H]1c1ccc(OC2CCN(C)CC2)cc1 [Compound 1684] | 8 to 40 |
| O=C(OCC1CCCC1)N1CCc2c([nH]c3ccc(Cl)cc23)[C@@H]1c1ccc(OC[C@H](O)CO)cc1 [Compound 1685] | < 8 |
| O=C(OCC1CCCC1)N1CCc2c([nH]c3ccc(Cl)cc23)[C@@H]1c1ccc(OC[C@@H](O)CO)cc1 [Compound 1686] | < 8 |

| Compound | EC50 [nM] |
| --- | --- |
| CCC(CO)(CO)COc1ccc([C@H]2c3[nH]c4ccc(Cl)cc4c3CCN2C(=O)OCC2CCCC2)cc1 [Compound 1687] | < 8 |
| COc1ncc(C2NCCc3c2[nH]c2ccc(Cl)cc32)cn1 (centres unmarked) [Compound 1688] | > 1000 |
| COc1ncc(C2c3[nH]c4ccc(Cl)cc4c3CCN2C(=O)Oc2ccc(Cl)cc2)cn1 (centres unmarked) [Compound 1689] | 8 to 40 |
| COc1ncc(C2c3[nH]c4ccc(Cl)cc4c3CCN2C(=O)Oc2ccc(F)cc2)cn1 (centres unmarked) [Compound 1690] | 8 to 40 |
| CCOC(=O)N1CCc2c([nH]c3ccc(Cl)cc23)C1c1cnc(OC)nc1 (centres unmarked) [Compound 1691] | 40 to 200 |
| CC#CCOC(=O)N1CCc2c([nH]c3ccc(Cl)cc23)C1c1cnc(OC)nc1 (centres unmarked) [Compound 1692] | 8 to 40 |
| O=C(OCCN1CCOCC1)N1CCC(Oc2ccc([C@H]3c4[nH]c5ccc(Cl)cc5c4CCN3C(=O)Oc3ccc(Cl)cc3)cc2)CC1 [Compound 1693] | < 8 |
| CN1CCC(Oc2ccc([C@H]3c4[nH]c5ccc(Cl)cc5c4CCN3C(=O)Oc3ccc(Cl)cc3)cc2)CC1 [Compound 1694] | < 8 |
| CCOC(=O)N1CCc2c([nH]c3ccc(Cl)cc23)[C@@H]1c1ccc(OC2OC(CO)C(O)C(O)C2O)cc1 (some centres unmarked) [Compound 1696] | > 1000 |
| CC#CCOC(=O)N1CCc2c([nH]c3ccc(Cl)cc23)[C@@H]1c1ccc(OC2CCN(C[C@H](O)CO)CC2)cc1 [Compound 1697] | < 8 |
| CCOC(=O)N1CCc2c([nH]c3ccc(Cl)cc23)[C@@H]1c1ccc(OC2COC2)cc1 [Compound 1699] | < 8 |
| CCOC(=O)N1CCc2c([nH]c3ccc(Cl)cc23)[C@@H]1c1ccc(Oc2ncc(CS(C)(=O)=O)s2)cc1 [Compound 1700] | < 8 |
| O=C(Oc1ccc(Cl)cc1)N1CCc2c([nH]c3ccc(Cl)cc23)[C@@H]1c1ccc(OC2CCN(CC[C@H](O)CO)CC2)cc1 [Compound 1703] | 200 to 1000 |
| O=C(Oc1ccc(Cl)cc1)N1CCc2c([nH]c3ccc(Cl)cc23)[C@@H]1c1ccc(OC2CCN(C[C@H](O)CO)CC2)cc1 [Compound 1704] | 8 to 40 |
| CC#CCOC(=O)N1CCc2c([nH]c3ccc(Cl)cc23)[C@@H]1c1ccc(OC2CCN(CC[C@H](O)CO)CC2)cc1 [Compound 1705] | 40 to 200 |
| CCNC(=O)C(=O)N1CCc2c([nH]c3ccc(Cl)cc23)C1c1ccc(OC)cc1 (centres unmarked) [Compound 1706] | 40 to 200 |
| COc1ccc(C2c3[nH]c4ccc(Cl)cc4c3CCN2C(=O)C(=O)NC(C)C)cc1 (centres unmarked) [Compound 1707] | 40 to 200 |
| CCCNC(=O)C(=O)N1CCc2c([nH]c3ccc(Cl)cc23)C1c1ccc(OC)cc1 (centres unmarked) [Compound 1708] | 200 to 1000 |
| COc1ccc(C2c3[nH]c4ccc(Cl)cc4c3CCN2C(=O)C(=O)NC2CCCC2)cc1 (centres unmarked) [Compound 1710] | 40 to 200 |
| COc1ccc(C2c3[nH]c4ccc(Cl)cc4c3CCN2C(=O)C(=O)Nc2ccc(Cl)cc2)cc1 (centres unmarked) [Compound 1711] | 8 to 40 |
| COc1ccc(C2c3[nH]c4ccc(Cl)cc4c3CCN2C(=O)C(=O)Nc2ccc(C)cc2)cc1 (centres unmarked) [Compound 1712] | 8 to 40 |
| COc1ccc(C2c3[nH]c4ccc(Cl)cc4c3CCN2C(=O)C(=O)Nc2ccc(F)cc2)cc1 (centres unmarked) [Compound 1713] | 40 to 200 |
